The values below come from patent US4110321A, “Synthetic tridecapeptide [Gln^4 ]-neurotensin having hormonal activity” (priority 1977, dated 1978).

Where no end group is shown, it is not given here.

In data set [1] the test system is canine fundic, antral and intestinal pouches. The experiment in a line: Spontaneous motor activity in isolated canine fundic, antral and intestinal pouches. Format: in vivo, dog. To be noted: intravenous infusion for 30 min. As to the method: The action of [Gln^4 ]-neurotensin was tested on the spontaneous motor activity in isolated canine fundic, antral and intestinal pouches. All of these pouches had been prepared more than 6 months prior to the testing. […] The gastro-intestinal tract appears to be the principal target organ for [Gln^4 ]-neurotensin, and is a basis for clinical use of [Gln^4 ]-neurotensin in patients having diseases of gastroenterology (S. Andersson, M.D. S. Rosell M.D., U. Hjelmquist M.D., D. Chang Ph.D. and K. Folkers Ph.D., Gastroenterology, in press).

Data set [2] has as its system rats. The experiment in a line: Hypotensive Assay. Format: in vivo, rat. To be noted: rats anesthetized with pentobarbital; 50 picomoles/100 g body weight via tail vein.
Experimental: Systemic blood pressure was measured with a Hewlett-Packard recorder and pressure transducer (preamplifier 8805 B, recorder 7782 A, transducer 267 BC) following cannulations of the carotid artery in rats weighing 200-250 g and anesthetized with pentobarbital (50 mg/kg). The test samples were dissolved in 0.85% saline and administered via a tail vein.
The nature of data set [3]: Simulation of isolation steps: stability in acetone 1 N HCl at 37° C. Format: physicochemical. As to the method: Toward simulation of these isolation steps, both in terms of temperature and the concentration of hydrochloric acid, 2 mg of synthetic [Gln^4 ]-neurotensin was dissolved in a mixture of acetone 1 N HCl (100:3 v/v), and this solution was maintained at 37° C. for 12 hours which can be presumed to be less than the time of the original large scale operation at the New England Enzyme Center in Boston. An aliquot of the solution was taken for thin layer electrophoresis on cellulose plates (160 microns, Eastman Chromatographic sheet) at 500 volts in pyridine-acetate buffer, pH 6.5. The major spot on the plate corresponded to [Gln^4 ]-neurotensin.However, a new and minor spot moving toward the cathode was present which had the same TLC retention time as neurotensin. The solution was allowed to stand overnight, and it was then maintained again at 37° for a second 12-hr period. […] The minor spot had increased during the second 12-hr period. The remaining solution was concentrated under reduced pressure at room temperature to remove acetone, and the aqueous residue was then lyophilized. The residual white powder was subjected to thin layer electrophoresis on cellulose plates and pyridine acetate buffer at pH 6.5 and at 500 volts. […] The Rf values were identical with those of an authentic specimen of [Gln^4 ]-neurotensin as follows: Rf^1 0.25; Rf^2 0.89; Rf^3 0.50; Rf^4 0.42; Rf^5 0.21; and Rf^6 0.98.
In the second experiment 10 mg of pure [Gln^4 ]-neurotensin was dissolved in a mixture of acetone 1 N HCl (100:3 v/v), and the solution was maintained at 37° C. for 27 hours to simulate again the steps of isolation which are being critiqued. This time, 3 spots were observed on electrophoretic analysis of an aliquot of the solution which had been maintained at 37° for 27 hrs. Preparative thin layer electrophoresis, extraction, and workup yielded 4.2 mg of recovered [Gln^4 ]-neurotensin and 4.3 mg of neurotensin. The third and much weaker spot was due to only a trace amount of another peptide which presumably resulted from further hydrolysis. […] The fact that in these two experiments, not all of the [Gln^4 ]-neurotensin was converted to neurotensin is relatively unimportant, because these experiments on hydrolysis of the pure [Gln^4 ]-neurotensin only simulates the conditions of processing of 20-45 kg of hypothalamic tissue.

The test system of another data set is anesthetized dogs. Nature of the data set: Heart, blood flow, blood glucose and lipolysis in anesthetized dogs. Format: in vivo, dog. From the text:
[Gln^4 ]-neurotensin ([Gln]^4 -NT) has also been studied on the heart and on the blood from in subcutaneous adipose tissue, skin, and small intestine in anesthetized dogs. In addition, its possible action has been investigated on blood glucose concentration and lypolysis in subcutaneous adipose tissue.

Data set [4] deals with rats. Nature of the data set: Hyperglycemic Assay. Format: in vivo, rat. To be noted: 15 minutes after injection.
Experimental: Rats weighing 100-125 g were anesthetized with pentobarbital (50 mg/kg). The test samples were dissolved in 0.85% saline and administered via a tail vein. Each animal was killed by decapitation 15 minutes after injection and plasma glucose levels were measured by the method of Ceriotti and Frank. […] The plasma glucose values are given in mg %.
The next data set relates to rabbit anti-NT serum. The experiment in a line: Radioimmunoassay. Format: binding. To be noted: I^125 -NT, two rabbit antisera, pH 7.4, 4° C.
A further data set has as its system guinea pig ileum. Nature of the data set: Contraction of Guinea Pig Ileum. Conditions: ileum segments in Tyrode's solution at 37°.
Setting [5] is: 10 mg in acetone 1 N HCl (100:3 v/v), 27 hours.

Experimental for guinea pig ileum: Freshly dissected segments of guinea pig ileum were suspended in a 40 ml bath which was maintained at 37° and serated with a mixture of O2 --CO2 (95:5), and containing Tyrode's solution.
Experimental for rabbit anti-NT serum: Two antisera were used in these assays. One has been characterized as being directed solely toward the COOH-terminus, and the other requires most of the molecule.
The radioimmunoassay method used was an equilibrium system carried out at pH 7.4 in 10 × 75 mm disposable flint glass tubes and employing PBS-gel as diluent. […] The mixtures were allowed to stand at 4° C. for 18-24 hours. The "bound" (B) and "free" (F) trace were separated at 4° C. by the rapid addition of 1.0 ml of a 1:4 dilution of a stock suspension of charcoal (2.5%) and dextran T-70 (0.25%) in PBS to each tube. The tubes were immediately centrifuged for 20 min at 2000 rpm (PRJ-Universal), and the supernatant fluids were decanted into new tubes. […] "Damage" was usually 2-4% and using antisera at a final dilution of 1:10,000 gave 50-70% binding. All unknowns were assayed in duplicate at three dilutions so as to span the sensitive portion of the curve. The results were obtained by averaging the concentrations determined at each dilution provided that they agreed within 20%.

With `CC[C@H](C)[C@H](NC(=O)[C@H](Cc1ccc(O)cc1)NC(=O)[C@@H]1CCCN1C(=O)[C@H](CCCNC(=N)N)NC(=O)[C@H](CCCNC(=N)N)NC(=O)[C@@H]1CCCN1C(=O)[C@H](CCCCN)NC(=O)[C@H](CC(N)=O)NC(=O)[C@H](CCC(N)=O)NC(=O)[C@H](Cc1ccc(O)cc1)NC(=O)[C@H](CC(C)C)NC(=O)[C@@H]1CCC(=O)N1)C(=O)N[C@@H](CC(C)C)C(=O)O` [[Gln^4]-NT], in data set [1], the “dose inducing significant motor inhibition, vagally innervated antral pouches” value was 6.3 ng/kg/min and the “dose inhibiting motor activity, vagally denervated fundic pouches” value is “above 25 ng × kg^-1 × min^-1”. Further, the “-ΔSystemic Blood Pressure” value with rats [2] turned out to be 42 ± 8 mm HG. The “recovered [Gln^4 ]-neurotensin” value in data set [3] (2 mg in acetone 1 N HCl (100:3 v/v), two 12-hr periods) is “About 1 mg”. In data set [3] (setting [5]), the neurotensin formed is on record as 4.3 mg and the “recovered [Gln^4 ]-neurotensin” value is 4.2 mg. For the same compound, in data set [3] (acetone 1 N HCl (100:3 v/v)), the “stability under the isolation conditions” value is “hydrolyzed or converted to neurotensin”. For the same compound, in the data set on anesthetized dogs (anesthetized dogs), the “action in the peripheral vasculature” value is “delayed vasoconstriction which is prominent is subcutaneous adipose tissue”, the blood glucose concentration entry is “increased blood glucose concentration” and the cardiac action entry is “no cardiac action”. For the same compound, the “action in the peripheral vasculature” value with anesthetized dogs (anesthetized dogs, listed as [Gln]^4 -NT) was “both vasodilator and vasoconstrictor actions”. Besides, the “lipid metabolism in adipose tissue” value in the data set with anesthetized dogs (subcutaneous adipose tissue) is “no evidence of a change in lipid metabolism in adipose tissue”. In addition, the “Hyperglycemic Assay, plasma glucose” value with rats [4] (25 picomoles/100 g body weight via tail vein) is 15±5 mg %. The “Hyperglycemic Assay, plasma glucose” value in the data set with rats [4] (50 picomoles/100 g body weight via tail vein) was found to be 34±4 mg %. Besides, in the data set on rats [4] (100 picomoles/100 g body weight via tail vein), the “Hyperglycemic Assay, plasma glucose” value is listed as 116 mg %. Also, the “% Cross Ractivity (Ab #4, #6)” value in the data set with rabbit anti-NT serum was 90-100%. In addition, in the data set with guinea pig ileum, the “Contraction of Guinea Pig Ileum, potency” value was “about equivalent potency”.
For “Substance P (RPKPQQFFGLM-NH2; UniProt P20366 58-68, looked up) [another polypeptide extracted from the hypothalamus, reference compound]”, the “action in the peripheral vasculature” value in the data set with anesthetized dogs (anesthetized dogs) is “hypotension and pronounced vasodilation and no vasoconstrictor or metabolic actions”.
